± gives the standard deviation.
Experiments:
[1] = chemical recovery from spiked human plasma; higher = better extraction; settings: pooled human plasma
[2] = chemical recovery by SPE of plasma after PDMS sampling; higher = better extraction; settings: pooled human plasma, extraction method: HLB SPE of plasma after PES
[3] = extraction method: PES+SPE (3 d PDMS equilibration then HLB SPE)
[4] = extraction method: SPE only (HLB 96-well)
[5] = extraction method: SPE only (HLB 96-well), PES comparison experiment
[6] = extraction method: solvent precipitation (ACN + hexane)
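Throughout, for chemical recovery by SPE of plasma after PDMS sampling: over 400 spiked chemicals quantified by LC-HRMS or GC-HRMS via internal standard calibration, recovery relative to spike mix added to unspiked plasma extract to correct matrix effects.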

| SMILES | chemical recovery [1, 3] [%] | chemical recovery [1, 4] [%] | chemical recovery [1, 5] [%] | chemical recovery [1, 6] [%] | chemical recovery by SPE of plasma ([2]; equilibration time (d): 1) [%] | chemical recovery by SPE of plasma ([2]; equilibration time (d): 3) [%] | chemical recovery by SPE of plasma ([2]; equilibration time (d): 6) [%] |
| --- | --- | --- | --- | --- | --- | --- | --- |
| Oc1c(Br)cc(Cl)cc1Cc1cc(Cl)cc(Br)c1O [Bromochlorophen] | 34.8 ± 6.3 | 28.9 ± 6 | 32.3 ± 8 | 34.9 ± 2 | 34.8 ± 10 | – | – |
| Clc1ccc(-c2ccc(Cl)cc2Cl)cc1 [PCB28] | – | 5.86 ± 1.6 | 20.3 ± 4.4 | – | 1.11 ± 1 | 1.62 ± 0.27 | 1.51 ± 0.26 |
| O=C(O)COCCN1CCN(C(c2ccccc2)c2ccc(Cl)cc2)CC1 (stereo not given) [Cetirizine] | 69.9 ± 7.9 | 50.9 ± 2.3 | 48.6 ± 6.5 | – | 47.2 ± 6.6 | 52.3 ± 5.3 | 47.7 ± 2.9 |
| CCCCn1cc[n+](C)c1 [1-Butyl-3-methyl-imidazolium] | – | 3.53 ± 1.7 | 3.93 ± 4.5 | – | 2.28 ± 2 | 3.98 ± 3.6 | 4.03 ± 4.2 |
| CCCOc1nn(C(=O)NS(=O)(=O)c2ccccc2C(=O)OC)c(=O)n1C [Propoxycarbazone] | 39.2 ± 4.4 | 31.4 ± 2.8 | 43.2 ± 6.2 | 75.6 ± 5.4 | 27.1 ± 5.6 | 32 ± 2.5 | 29.4 ± 1.4 |
| CC(C)(c1cc(Br)c(O)c(Br)c1)c1cc(Br)c(O)c(Br)c1 [Tetrabromobisphenol A] | – | – | 29.4 ± 10 | 14.4 ± 1.4 | – | 30.4 ± 11 | – |
| CCCCCOC(=O)Nc1nc(=O)n([C@@H]2O[C@H](C)[C@@H](O)[C@H]2O)cc1F [Capecitabine] | – | – | 47.5 ± 7.2 | – | 44.1 ± 5.1 | 48.6 ± 5.5 | 44.2 ± 1.7 |
| COCC(C)N(C(=O)CS(=O)(=O)O)c1c(C)csc1C (stereo not given) [Dimethenamid ESA] | – | – | 49.6 ± 3.4 | – | 45.5 ± 8.5 | 51.4 ± 4.4 | 45.4 ± 4.1 |
| COCC(C)N(C(=O)C(=O)O)c1c(C)csc1C (stereo not given) [Dimethenamid OA] | – | – | 51.7 ± 4.2 | – | 52.2 ± 8.1 | 58.9 ± 3.8 | 51.8 ± 2.6 |
| Oc1ccc(Cl)cc1Cl [2,4-Dichlorophenol] | 43.4 ± 3.3 | 40.3 ± 3.3 | 54.2 ± 5.9 | – | 49.3 ± 11 | 56.9 ± 4.3 | 50.9 ± 3.1 |
| Cn1ccnc1S [Methimazol] | 0.467 ± 0.11 | 0.483 ± 0.27 | 0.192 ± 0.098 | 44.8 ± 6.5 | 0.224 ± 0.23 | 0.612 ± 0.32 | 0.886 ± 0.81 |
| O=[N+]([O-])c1ccc(O)cc1 [4-Nitrophenol] | 48.9 ± 3 | 41.5 ± 6.3 | 64.5 ± 4.6 | 65.1 ± 6.7 | 57.4 ± 7.2 | 59.3 ± 2.9 | 55.1 ± 4.6 |
| CC[N+](CC)(CC(=O)Nc1c(C)cccc1C)Cc1ccccc1 [Denatonium] | 50.8 ± 2.9 | 38.4 ± 3.9 | 49.9 ± 3.3 | 71.9 ± 3.3 | 56.4 ± 6.3 | 57.1 ± 3.3 | 54.9 ± 6.9 |
| CC(=O)CC(c1ccccc1)c1c(O)c2ccccc2oc1=O (stereo not given) [Warfarin] | 50 ± 3.2 | 44.9 ± 2.1 | 56.6 ± 4.3 | 72.5 ± 6.1 | 62.2 ± 10 | 66.6 ± 3.5 | 62.8 ± 4.6 |
| COc1cc(OC)nc(NC(=O)NS(=O)(=O)c2ncccc2C(=O)N(C)C)n1 [Nicosulfuron] | – | 44.7 ± 3.3 | 49.3 ± 3.4 | 64.3 ± 2.2 | 51.6 ± 5.2 | 56 ± 2.5 | 50.3 ± 3.3 |
| CC(=O)Nc1ccc(O)c(C(=O)O)c1 [N-Acetyl mesalazine] | – | – | 58.9 ± 4.9 | – | 56.2 ± 8.4 | 61.6 ± 4.1 | 55.1 ± 4.2 |
| C[C@]12C=CC(=O)C=C1CC[C@@H]1[C@@H]2[C@@H](O)C[C@@]2(C)[C@H]1CC[C@]2(O)C(=O)CO [Prednisolone] | – | – | 61.1 ± 7.2 | – | – | 48.4 ± 2.3 | 44.5 ± 1.3 |
| c1ccc2cc3c(ccc4ccccc43)cc2c1 [Benz(a)anthracene] | – | 1.06 ± 0.29 | – | 20.2 ± 2.8 | – | 8.41 ± 7.3 | 4.31 ± 7.5 |
| CCc1cccc(C)c1N(C(=O)C(=O)O)C(C)C(=O)O (stereo not given) [Metolachlor CGA 357-704] | – | – | 41 ± 6 | – | – | 54.2 ± 4.1 | 47.4 ± 3 |
| O=c1[nH]nc(C(F)(F)F)s1 [Thiadone] | – | – | 15.9 ± 4.4 | – | – | 47.9 ± 6.8 | 41.5 ± 14 |
| NC(=O)c1c(Cl)c(Cl)cc(C(=O)O)c1Cl | 25.4 ± 4.9 | 30.6 ± 4.5 | 52.8 ± 4.5 | 65.4 ± 4.9 | – | 49.6 ± 1.4 | 45.4 ± 6.4 |
| Cc1cccc(C)c1N(Cn1cccn1)C(=O)CS(=O)(=O)O [Metazachlor ESA] | – | 97.9 ± 4.8 | – | – | 44.3 ± 5.8 | 50.6 ± 2.1 | 43.4 ± 3 |

| SMILES | chemical recovery [1, 3] [%] | chemical recovery [1, 4] [%] | chemical recovery [1, 5] [%] | chemical recovery [1, 6] [%] | chemical recovery by SPE of plasma ([2]; equilibration time (d): 1) [%] | chemical recovery by SPE of plasma ([2]; equilibration time (d): 3) [%] | chemical recovery by SPE of plasma ([2]; equilibration time (d): 6) [%] |
| --- | --- | --- | --- | --- | --- | --- | --- |
| c1ccc2sc(SNC3CCCCC3)nc2c1 [N-Cyclohexyl-2-benzothiazole-sulfenamide] | – | – | 44.1 ± 3.7 | – | 42.3 ± 7.4 | 43.6 ± 3.3 | 42.3 ± 4.2 |
| C[C@@H]1C[C@H]2[C@@H]3C[C@H](F)C4=CC(=O)C=C[C@]4(C)[C@@]3(F)[C@@H](O)C[C@]2(C)[C@@]1(O)C(=O)CO [Flumethasone] | – | – | 47.9 ± 6.4 | – | 46.8 ± 5.2 | 51.4 ± 1.9 | 44.3 ± 2.9 |
| O=C(O)C(F)(F)C(F)(F)C(F)(F)C(F)(F)C(F)(F)C(F)(F)C(F)(F)C(F)(F)C(F)(F)F [Perfluorodecanoic acid] | – | 20.4 ± 10 | – | – | 25.3 ± 4.6 | 24.1 ± 4.5 | – |
| O=C(O)c1cc(Oc2ccc(Cl)cc2Cl)ccc1[N+](=O)[O-] [Bifenox free acid] | 38.2 ± 3.9 | 30.6 ± 3.6 | 36.6 ± 6.7 | 65.8 ± 3.1 | – | 40.7 ± 16 | – |
| Cc1cccc(C)c1N(Cn1cccn1)C(=O)C[S+]([O-])CC(=O)O (stereo not given) [Metazachlor BH 479-9] | – | 48.2 ± 5.2 | 47.4 ± 4.1 | 81 ± 4.5 | 54.5 ± 12 | 57.9 ± 5 | 54.7 ± 7.3 |
| CC(CCc1ccccc1)NCC(O)c1ccc(O)c(C(N)=O)c1 (stereo not given) [Labetalol] | 47.4 ± 3.7 | 55.6 ± 8.6 | 51.3 ± 4.4 | 70.5 ± 3.8 | 46.4 ± 3.9 | 50.6 ± 3.4 | 44.8 ± 2.3 |
| O=c1c(-c2ccc(O)cc2)coc2cc(O)cc(O)c12 [Genistein] | 55.5 ± 1.2 | 49.1 ± 3.9 | 46.4 ± 4 | 48.3 ± 10 | 46.2 ± 7.8 | 50 ± 4.5 | 47 ± 3.7 |
| COP(=O)(OC)C(O)C(Cl)(Cl)Cl (stereo not given) [Trichlorfon] | 13.2 ± 1.2 | 33.1 ± 1.9 | 43.1 ± 8.1 | 0.0499 ± 0.086 | 30.8 ± 2.4 | 25.3 ± 0.61 | 18.2 ± 1.2 |
| CCCCCCCCCCCCNC [N-Methyldodecylamine] | – | – | 44.7 ± 7.9 | 62.7 ± 5.7 | 0.209 ± 0.36 | – | – |
| c1ccc2c(c1)cc1ccc3cccc4ccc2c1c34 [Benzo(a)pyrene] | – | 4.36 ± 4 | – | 99.1 ± 12 | 1.26 ± 1.1 | – | – |
| CC[C@H]1OC(=O)[C@H](C)[C@@H](O[C@H]2C[C@@](C)(OC)[C@@H](O)[C@H](C)O2)[C@H](C)[C@@H](O[C@@H]2O[C@H](C)C[C@H](N(C)C)[C@H]2O)[C@](C)(O)C[C@@H](C)C(=O)[C@H](C)[C@@H](O)[C@]1(C)O [Erythromycin] | 4.25 ± 0.61 | 10.9 ± 8.2 | 3.18 ± 1.2 | 66 ± 3.4 | – | 11.9 ± 6.8 | 6.49 ± 3.8 |
| NCC1(CC(=O)O)CCCCC1 [Gabapentin] | – | 14.7 ± 7.2 | 0.0969 ± 0.19 | – | – | – | 0.00483 ± 0.0084 |
| C[C@]12C=CC(=O)C=C1CC[C@H]1[C@@H]3C[C@@H](O)[C@](O)(C(=O)CO)[C@@]3(C)C[C@H](O)[C@@]12F [Triamcinolone] | – | – | 50.5 ± 3.2 | – | 55.2 ± 12 | 58.4 ± 5.8 | 54.9 ± 10 |
| CC(=O)Nc1ccc(S(=O)(=O)Nc2cc(C)on2)cc1 [Acetyl-sulfamethoxazole] | 42.7 ± 3.9 | 37.2 ± 3.4 | 51.5 ± 4.3 | 72 ± 3.1 | 51.7 ± 7.1 | 51.4 ± 3.5 | 49.3 ± 6.2 |
| COc1cc(NS(=O)(=O)c2ccc(N)cc2)nc(OC)n1 [Sulfadimethoxine] | 33.4 ± 3.4 | 30.1 ± 3.6 | 45.7 ± 3.6 | – | 49 ± 9.9 | 50.2 ± 5.5 | 48.5 ± 7.4 |
| CC[C@H]1OC(=O)[C@H](C)[C@@H](O[C@H]2C[C@@](C)(OC)[C@@H](O)[C@H](C)O2)[C@H](C)[C@@H](O[C@@H]2O[C@H](C)C[C@H](N(C)C)[C@H]2O)[C@](C)(O)C[C@@H](C)/C(=N\OCOCCOC)[C@H](C)[C@@H](O)[C@]1(C)O [Roxithromycin] | – | – | 36.2 ± 4.7 | – | 28.8 ± 5.2 | 29.5 ± 4.3 | 26.9 ± 3.6 |
| COc1ccc(Cl)cc1C(=O)NCCc1ccc(S(=O)(=O)NC(=O)NC2CCCCC2)cc1 [Glibenclamide] | – | – | 42.1 ± 7 | 74.9 ± 2.6 | – | 43.4 ± 2.1 | 38 ± 3.8 |
| Nc1ccc(Sc2ccc(N)cc2)cc1 [4,4'-Thiodianiline] | 1.15 ± 0.088 | 8.97 ± 1.9 | 16.5 ± 2 | 42.1 ± 9.6 | 11.7 ± 2.8 | 10.6 ± 2.5 | 7.77 ± 1.4 |
| NC(=O)N=C(N)N [Guanylurea] | – | – | 1.06 ± 1.4 | – | 0.503 ± 1.2 | 0.581 ± 0.1 | 0.912 ± 0.18 |
| O=P(O)(Oc1ccccc1)Oc1ccccc1 [Diphenylphosphate] | – | 44.6 ± 4.8 | 47 ± 7 | – | 46.4 ± 13 | 56 ± 6.6 | 49.8 ± 8.2 |
| Oc1ccccc1-c1ccccc1 [2-Phenylphenol] | – | 19.9 ± 4.2 | – | – | 4.5 ± 4 | 3.47 ± 0.42 | 3.11 ± 1.4 |
| NS(=O)(=O)c1cc(C(=O)O)c(NCc2ccco2)cc1Cl [Furosemide] | 44.9 ± 5.1 | 48.4 ± 7.2 | 50 ± 6.5 | 69.3 ± 6.1 | 55.5 ± 12 | 70.9 ± 4.3 | 66.2 ± 5.9 |

From the supplement of paper PMC10702517
